Experimental data published in the supplement of paper PMC11061612.

Key:
Experiment in all cases: combination Emax (second highest fraction inhibited in the dose matrix, 72 h); higher = more inhibition; extreme values may be limits of the assay
[1] = system: 769-P (Kidney Carcinoma)
Summary of the method: (§1)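 Cell lines in DMEM/F12 or RPMI with 10% FBS were plated in 1536-well plates, held 24 hours at 37°C, 5% CO2, then given two-drug dose matrices for 72 hours (DMSO typically 0.2%). Viability was read by CellTiter-Glo 2.0 luminescence and scaled as inhibition from 0 (vehicle wells) to 1 (blank wells). Combination Emax is the second-highest inhibition in the matrix; Bliss excess is observed combination effect minus expected EA + EB − EA·EB, EA and EB being single-agent effects.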

[2] = system: A2780 (Ovarian Carcinoma)
Summary of the method: as §1

[3] = system: CAL-27 (Oral Cavity Carcinoma)
Summary of the method: as §1

[4] = system: CGTH-W-1 (Thyroid Gland Carcinoma)
Summary of the method: as §1

[5] = system: DU-4475 (Breast Carcinoma)
Summary of the method: as §1

[6] = system: EB2 (Burkitt's Lymphoma)
Summary of the method: as §1

[7] = system: GA-10 (Burkitt's Lymphoma)
Summary of the method: as §1

[8] = system: GCT (Other Solid Carcinomas)
Summary of the method: as §1

[9] = system: HCC1395 (Breast Carcinoma)
Summary of the method: as §1

[10] = system: HCC70 (Breast Carcinoma)
Summary of the method: as §1

[11] = system: JHU-022 (Oral Cavity Carcinoma)
Summary of the method: as §1

[12] = system: JVM-2 (B-Cell Non-Hodgkin's Lymphoma)
Summary of the method: as §1

[13] = system: KYSE-140 (Esophageal Squamous Cell Carcinoma)
Summary of the method: as §1

[14] = system: KYSE-220 (Esophageal Squamous Cell Carcinoma)
Summary of the method: as §1

[15] = system: LS-411N (Colorectal Carcinoma)
Summary of the method: as §1

[16] = system: LU-165 (Small Cell Lung Carcinoma)
Summary of the method: as §1

[17] = system: NCI-H2087 (Lung Adenocarcinoma)
Summary of the method: as §1

[18] = system: NCI-H716 (Colorectal Carcinoma)
Summary of the method: as §1

[19] = system: UACC-812 (Breast Carcinoma)
Summary of the method: as §1

[20] = system: WM1552C (Melanoma)
Summary of the method: as §1

SMILES	combination Emax [1]	combination Emax [2]	combination Emax [3]	combination Emax [4]	combination Emax [5]	combination Emax [6]	combination Emax [7]	combination Emax [8]	combination Emax [9]	combination Emax [10]	combination Emax [11]	combination Emax [12]	combination Emax [13]	combination Emax [14]	combination Emax [15]	combination Emax [16]	combination Emax [17]	combination Emax [18]	combination Emax [19]	combination Emax [20]
Cc1c2c(nn1C)CSCc1cc(n(C)n1)CSc1cc(c3ccccc3c1)OCCCc1c(C(=O)O)n(C)c3c-2c(Cl)ccc13 [AZD5991] + C=CCn1c(=O)c2cnc(Nc3ccc(N4CCN(C)CC4)cc3)nc2n1-c1cccc(C(C)(C)O)n1 [AZD1775] (first compound max 1 µM, partner max 1 µM)	0.858	0.858	0.972	0.19	0.977	0.769	1	0.556	0.88	0.951	0.451	0.966	0.905	0.848	0.741	0.441	0.481	0.611	0.478	0.779
Cn1cnc2c(F)c(Nc3ccc(Br)cc3Cl)c(C(=O)NOCCO)cc21 [Selumetinib] + CC(C)n1c(=O)n(C)c2cnc3cc(F)c(-c4ccc(OCCCN5CCCCC5)nc4)cc3c21 [AZD1390] (first compound max 10 µM, 7x7, partner max 0.3 µM)	0.294	0.574	0.611	0.044	1	0.0739	0.165	0.287	0.192	0.268	0.497	0.352	0.191	0.405	0.666	0.213	0.449	0.452	0.129	0.384
Cc1c2c(nn1C)CSCc1cc(n(C)n1)CSc1cc(c3ccccc3c1)OCCCc1c(C(=O)O)n(C)c3c-2c(Cl)ccc13 [AZD5991] + Cc1cc2ncnn2cc1Nc1ncc2c(n1)n(C1CCOCC1)c(=O)n2C [AZD7648] (first compound max 1 µM, 7x7, partner max 10 µM)	0.32	0.751	0.985	0.181	0.297	0.465	0.851	0.352	0.545	0.926	0.245	0.68	0.401	0.218	0.116	0.265	0.187	0.228	0.488	0.71
COc1cccc(OCCCN)c1-c1cc(Nc2cnc(C#N)cn2)n[nH]1 [Prexasertib] + CCc1c2c(nc3ccc(O)cc13)-c1cc3c(c(=O)n1C2)COC(=O)[C@]3(O)CC [SN-38] (first compound max 1 µM, 7x7, partner max 0.3 µM)	0.789	0.857	0.948	0.832	1	0.976	1	0.842	0.898	0.944	0.756	0.985	0.945	0.96	0.867	0.642	0.918	0.726	0.604	0.833
CN(CCO)CC[C@H](CSc1ccccc1)Nc1ccc(S(=O)(=O)NC(=O)c2ccc(N3CCC([C@@H](O)c4ccccc4-c4ccc(Cl)cc4)CC3)cc2)cc1S(=O)(=O)C(F)(F)F [AZD4320] + CN(C)CCCOc1ccc(-c2ccc3ncc4c(c3c2)n(C2CCOCC2)c(=O)n4C)cn1 [AZD0156] (first compound max 1 µM, 7x7, partner max 1 µM)	0.719	0.383	0.158	0.119	0.871	0.253	0.303	0.239	0.202	0.281	0.102	0.487	0.157	0.14	0.199	0.526	0.321	0.195	0.175	0.163
CC1(C)CCC(CN2CCN(c3ccc(C(=O)NS(=O)(=O)c4ccc(NCC5CCOCC5)c([N+](=O)[O-])c4)c(Oc4cnc5[nH]ccc5c4)c3)CC2)=C(c2ccc(Cl)cc2)C1 [Venetoclax] + C[C@@H](Nc1cc(F)cc(F)c1)c1cc(C(=O)N(C)C)cc2c(=O)cc(N3CCOCC3)oc12 [AZD8186] (first compound max 1 µM, 7x7, partner max 3 µM)	0.297	0.472	0.182	0.116	0.262	0.746	0.617	0.32	0.701	0.532	0.314	0.661	0.222	0.141	0.343	0.219	0.08	0.225	0.0679	0.365
Cc1c2c(nn1C)CSCc1cc(n(C)n1)CSc1cc(c3ccccc3c1)OCCCc1c(C(=O)O)n(C)c3c-2c(Cl)ccc13 [AZD5991] + Cn1cnc2c(F)c(Nc3ccc(Br)cc3Cl)c(C(=O)NOCCO)cc21 [Selumetinib] (first compound max 1 µM, 7x7, partner max 3 µM)	0.227	0.538	0.988	0.181	1	0.212	0.751	0.427	0.56	0.994	0.398	0.646	0.439	0.304	0.826	0.161	0.588	0.515	0.579	0.884
COc1nnc2ccc(N3CCC(c4ccc(OCCN5CCN(C)C(=O)[C@H]5C)cc4)CC3)nn12 [AZD5153] + Cc1c2c(nn1C)CSCc1cc(n(C)n1)CSc1cc(c3ccccc3c1)OCCCc1c(C(=O)O)n(C)c3c-2c(Cl)ccc13 [AZD5991] (first compound max 1 µM, 7x7, partner max 1 µM)	0.727	0.977	1	0.428	0.974	0.608	0.967	0.6	0.817	0.96	0.417	0.711	0.603	0.842	0.917	0.65	0.453	0.817	0.8	0.888
COc1cccc(OCCCN)c1-c1cc(Nc2cnc(C#N)cn2)n[nH]1 [Prexasertib] + Cc1cc2ncnn2cc1Nc1ncc2c(n1)n(C1CCOCC1)c(=O)n2C [AZD7648] (first compound max 1 µM, 7x7, partner max 10 µM)	0.819	0.737	0.426	0.725	0.963	0.92	1	0.36	0.855	0.922	0.634	0.956	0.953	0.935	0.753	0.58	0.801	0.662	0.546	0.763
CCN(CCO)CCCOc1ccc2c(Nc3cc(CC(=O)Nc4cccc(F)c4)[nH]n3)ncnc2c1 [AZD2811] + C[C@@H]1COCCN1C2=NC(=NC(=C2)C3(CC3)[S@](=N)(=O)C)C4=C5C=CNC5=NC=C4 [AZD6738] (first compound max 1 µM, 7x7, partner max 10 µM)	0.85	0.815	0.515	0.35	0.944	0.746	0.978	0.242	0.785	0.797	0.535	0.875	0.92	0.884	0.819	0.38	0.662	0.515	0.323	0.642
COc1cccc(OCCCN)c1-c1cc(Nc2cnc(C#N)cn2)n[nH]1 [Prexasertib] + C[C@@H]1COCCN1C2=NC(=NC(=C2)C3(CC3)[S@](=N)(=O)C)C4=C5C=CNC5=NC=C4 [AZD6738] (first compound max 1 µM, 7x7, partner max 10 µM)	0.837	0.825	0.504	0.711	0.995	0.92	1	0.315	0.86	0.908	0.627	0.949	0.959	0.939	0.795	0.565	0.797	0.616	0.542	0.743
CN(C)CCCOc1ccc(-c2ccc3ncc4c(c3c2)n(C2CCOCC2)c(=O)n4C)cn1 [AZD0156] + C=CCn1c(=O)c2cnc(Nc3ccc(N4CCN(C)CC4)cc3)nc2n1-c1cccc(C(C)(C)O)n1 [AZD1775] (first compound max 1 µM, partner max 1 µM)	0.766	0.79	0.376	0.188	0.924	0.841	0.988	0.413	0.682	0.542	0.36	0.888	0.844	0.812	0.641	0.38	0.332	0.482	0.156	0.476
CCN(CCO)CCCOc1ccc2c(Nc3cc(CC(=O)Nc4cccc(F)c4)[nH]n3)ncnc2c1 [AZD2811] + O=C(c1cc(Cc2n[nH]c(=O)c3ccccc23)ccc1F)N1CCN(C(=O)C2CC2)CC1 [Olaparib] (first compound max 1 µM, 7x7, partner max 10 µM)	0.144	0.717	0.778	0.291	0.576	0.373	0.595	0.328	0.328	0.675	0.271	0.738	0.355	0.214	0.149	0.29	0.163	0.367	0.181	0.377
